Measurements published in patent US20210121438A1, “METHODS FOR TREATING OR PREVENTING CONFORMATION DISEASES AND METHODS FOR DRUG SCREENING” (GARAGE BRAIN SCIENCE CO., LTD, priority 2018, published 2021).
Where a SMILES comes first, the peptide text is derived from it. The star is where a group is joined. Cbz = O=C(OCc1ccccc1)*

What was measured:
Format in all cases: cell-based
[1] = test system: TDP-43-mediated CFTR exon 9 skipping; experiment: Alternative splicing assay (in vivo splicing, CFTR minigene); settings: EGCG
Method: Alternative Splicing Assay: TDP-43-mediated CFTR exon 9 skipping assays were performed as previously described. Briefly, cells were cotransfected with TDP-43 plasmid, hCF-(TG)13(T)5 minigenes and the indicated plasmids, including VCP/p97 wt, VCP/p97 QQ, HSPB1, lamin A or progeria, or HSPB1 siRNA. Total RNA of transfectanted cells was isolated by TRIzol reagent (Invitrogen), and RT-PCR was carried out by Superscript III (Invitrogen) using specific primers to amplify exons 8-10 of CFTR according to the manufacturer's protocol. The relative amounts of cDNA were validated on 1.3% agarose gels. […]

[2] = test system: GFP-TDP-43-IIPLD inclusion-expressing 293T cells; experiment: TDP-43-IIPLD misfolded aggregates in transfected 293T cells (microscopy)
Method: Cell Culture and Drug Treatment: 293T cells were used throughout the experimental studies. 293T cells were grown in Dulbecco's modified Eagle's medium (DMEM)/F12, which was supplemented with 10% fetal bovine serum, 1% penicillin/streptomycin and 1% L-glutamate. Primary cultures of rat hippocampal neurons were prepared from embryonic day 17 rat embryos as previously described by (Wang et al, TDP-43, the signature protein of FTLD-U, is a neuronal activity-responsive factor. J. Neurochem. 105, 79T-806 (2008)). All procedures for handling the rat were carried out in accordance with the guidelines approved by the Institutional Animal Care and Utilization Committee, Academia Sinica. Hippocampal cells were plated on poly-1-lysine-coated coverslides at low density (10,000 cells per cm2) and cultured in the neurobasal medium/B27 (Invitrogen). The 293T cells were transfected using the calcium phosphate protocol according to the manufacturer's instructions and as previously described by Wang et al. (Wang et al., ProcNatlAcadSci USA. 99, 13583-13588 (2002). All of the plasmid constructs were described in Wang et al., Nature Communication, 2012). 293T cells (1×10^5) were seeded in each well of a six-well plate and incubated overnight in a 37° C. incubator with 5% CO2. To determine the effects of off-pathway stabilizers on the reduction of pathological-like aggregates, the cells were treated with baicalein and EGCG for 12, 24, or 48 h with the indicated concentrations (25 or 50 μM).
GFP-TDP-43 pathological-like (GFP-TDP-43-IIPLD) inclusion-expressing 293T cells were treated with or without 50 μM baicalein for 12 h following microscopic analysis and Western blotting validation. […] (FIG. 2c).

TDP-43 polymers = target: T1, TDP-43 polymers (Homo sapiens, UniProt Q13148); experiment: Western blotting of TDP-43 polymers in nuclear, cytosolic and urea fractions; settings: EGCG-treated cells
T1 construct: endogenous in cells; host or cells: 293T
Method: Solubility Assay of TDP-43 and p53: Cells with or without transfection of TDP-43-FL or TDP-43-Q303P were lysed with RIPA buffer (50 mM Tris, 150 mM NaCl, 1 mM EDTA, 1% NP-40, pH 7.4), and the lysate was further fractionated by centrifugation at 16,000 g for 5 min at 4° C. The insoluble pellets were then dissolved in 8 M urea/50 mM Tris (pH 8.0). The proteins were identified by Western blotting using a polyclonal TDP-43 antibody or a monoclonal p53 antibody.
TDP-43 proteinopathies in FTLD/ALS with the VCP/97 mutation R155H have been characterized. The VCP/97 mutation R155H alters the functions of VCP/97, redistributes TDP-43 to the cytosol, and leads to form-insoluble aggregates of TDP-43.

four p53 strains = experiment: Cell viability of the four p53 strains under stress (MTT assay)
Text: Our clonally expanded system provided an excellent cellular model to precisely investigate the oncogenicity of strain-specific p53 amyloid conformations in vivo. We analyzed cell growth of the four p53 amyloid strains by examining cell cycle flow and counting doubling time (FIGS. 17a and 17b). […] In contrast to the toxic amyloids observed in neurodegenerative contexts, p53 amyloids appear to promote cell growth. Additionally, to assess the stress response, the four cell strains were challenged with spermidine and H2O2 (FIGS. 17c and 17d). Cell viability was impaired under all stress conditions. […] To further identify key pathophysiology pathways involved in tumorigenesis of p53 aggregates' gain-of-function, we performed a serial screen by western blotting and compared the expression of cancer-related proteins in the four strains. […] Additionally, a group of epigenetic regulators altered their expression in present of p53 aggregates. […] Together with the horizontal transmissibility shown in FIG. 16, the three endogenous p53 aggregates were able to switch into malignant cancer cells including activating EMT, increasing cancer stemness, and dramatically altering epigenetic regulators, and the strain-specific p53 amyloids can propagate oncogenic inheritance via a protein-based mechanism.

[3] = test system: p53 aggregates in 293T cells; experiment: p53 aggregates in 293T cells / p53 strains (immunofluorescence with p53 antibody)
Method: Immunohistochemistry: Fluorescence staining was performed as described previously (Wang et al., 2012). Cells were transfected with or without plasmids or siRNAs and grown for 24 to 48 hr. Cells were fixed with 3.7% paraformaldehyde in PBS at RT for 15 min and then permeabilized with 0.1% Triton X-100. The fixed cells were incubated with primary antibodies at RT for 2 hr followed by incubation with Cy2- or Cy3-labeled secondary antibodies (Molecular Probes). Slides were mounted using Vectashield DAPI H-1200 (Vector). Cellular fluorescence images were collected using an LSM710 META laser-scanning confocal microscope (Zeiss).
We observed a striking degree of heterogeneity among p53 aggregates in the cytosol of 293T cells by immunofluorescence with a p53 antibody, including long fibers (5-10 μm), short fibers (1.6-3.2 μm) and punctate aggregates (0.5-1 μm in diameter) (FIG. 16a, arrows). The length of the p53 fibers and p53 aggregates were analyzed (FIG. 16b). […] To determine whether these heterogeneous p53 amyloid patterns are inherited or are random conversions, we subcultured and isolated single colonies from heterogeneous pools of cells. […] We obtained four phenotypes shown in FIG. 16a, including long and short fibers, puncta, and diffuse nuclear staining, and these phenotypes were stably propagated (FIG. 16e). We termed these p53 phenotypes of the isolated strains as follows: p53 [L] (Long fibers), p53 [S] (Short fibers), p53 [P] (Puncta) and p53-NVA (No Visible Aggregates).
Additionally, we treated 293T cells with an Aβ amyloid disassembling agent, baicalein, following immunofluorescence staining with anti-p53 antibodies.

T1 sequence (Q13148 whole entry): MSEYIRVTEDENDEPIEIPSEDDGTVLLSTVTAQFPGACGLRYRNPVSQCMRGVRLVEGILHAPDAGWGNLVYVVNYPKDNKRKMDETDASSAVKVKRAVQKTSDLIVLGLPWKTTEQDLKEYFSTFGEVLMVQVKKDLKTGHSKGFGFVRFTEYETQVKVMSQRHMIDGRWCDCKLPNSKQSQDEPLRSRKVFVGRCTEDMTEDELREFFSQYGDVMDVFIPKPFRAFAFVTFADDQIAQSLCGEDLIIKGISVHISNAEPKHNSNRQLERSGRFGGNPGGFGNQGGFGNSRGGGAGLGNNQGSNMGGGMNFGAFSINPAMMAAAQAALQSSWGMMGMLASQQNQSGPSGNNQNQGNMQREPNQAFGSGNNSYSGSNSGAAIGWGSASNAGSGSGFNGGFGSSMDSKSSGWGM

For `O=C(O[C@@H]1Cc2c(O)cc(O)cc2O[C@@H]1c1cc(O)c(O)c(O)c1)c1cc(O)c(O)c(O)c1` [EGCG], the “correction of TDP-43 dysfunction on mRNA processing” value [1] was “insufficient to correct TDP-43 dysfunction on mRNA processing”, the “TDP-43-IIPLD aggregates, statistical analysis of dose dependence” value [2] was “disassembled the formed TDP-43 misfolded aggregates in a dose-dependent manner” and the “assembly of TDP-43-IIPLD proteinaceous nucleating particles” value ([2]; 50 μM) was “reduce TDP-43 proteinaceous nucleating particles”. For the same compound, the TDP-43 species (TDP-43 polymers) was “increased the level of the 130 kD TDP-43 instead of the high-order TDP-43 polymers”.
With `NCCCCNCCCN` [spermidine] the cell viability (four p53 strains; four p53 strains challenged with spermidine) was “impaired”.
With `CC(C)C[C@@H](C=O)NC(=O)[C@H](CC(C)C)NC(=O)[C@H](CC(C)C)NC(=O)OCc1ccccc1` [MG132] (Cbz-Leu-Leu-Leu-aldehyde) the “form of p53 fibers” value ([3]; 293T cells, MG132) was “converted the three types of p53 fibers into irregular inclusions” and the p53 aggregates ([3]; 293T cells, MG132) was “significantly increased p53 aggregates”.
In the case of `OO` [H2O2], the cell viability (four p53 strains; four p53 strains challenged with H2O2) is reported as “impaired” and the p53 aggregate formation ([3]; H2O2 treatment) is reported as “induced p53 aggregate formation”.
